Experimental data as given in paper PMC6411751, “Use of machine learning to identify novel, behaviorally active antagonists of the insect odorant receptor co-receptor (Orco) subunit” (Scientific Reports, 2019).
Counter-ions that a name gives are not always drawn.

Tests used:
Agam\Or65 + Agam\Orco = target: T1, Agam\Or65 + Agam\Orco (Anopheles gambiae, UniProt Q7QCC7); assay: Inhibition of heteromeric OR in oocytes (eugenol activation); type: cell-based; details: 100 µM antagonist; 100 nM eugenol
T1 construct: expressed in transfected cells; host or cells: Xenopus laevis oocytes
T1 sequence (Q7QCC7 1-478): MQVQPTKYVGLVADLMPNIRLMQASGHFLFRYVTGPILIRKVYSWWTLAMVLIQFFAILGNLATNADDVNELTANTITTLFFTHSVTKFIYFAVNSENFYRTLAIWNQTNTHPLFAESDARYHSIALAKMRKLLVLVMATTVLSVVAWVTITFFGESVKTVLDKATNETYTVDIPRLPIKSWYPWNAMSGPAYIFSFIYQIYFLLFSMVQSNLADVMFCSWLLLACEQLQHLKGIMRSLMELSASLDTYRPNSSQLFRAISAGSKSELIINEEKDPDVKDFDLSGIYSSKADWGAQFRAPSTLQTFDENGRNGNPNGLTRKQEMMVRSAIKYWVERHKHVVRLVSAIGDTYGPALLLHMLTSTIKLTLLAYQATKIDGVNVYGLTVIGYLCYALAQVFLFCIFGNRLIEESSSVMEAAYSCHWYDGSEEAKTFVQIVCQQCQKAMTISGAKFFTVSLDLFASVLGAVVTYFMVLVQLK
Method: An automated parallel electrophysiology system (OpusExpress 6000 A, Molecular Devices) was used to record Orco agonist (OLC12) or odorant induced currents under two-electrode voltage clamp. Oocytes were perfused with ND96 (in mM: 96 NaCl, 2 KCl, 1 CaCl2, 1 MgCl2, 5 HEPES, pH 7.4). DMSO was used to prepare 1 M or 100 mM stock solutions of test compounds, which were then diluted in ND96 on the day of the experiment. Compounds were applied at a flow rate of 1.0 mL/min, with extensive washing in ND96 at 4.6 mL/min between applications. Micropipettes with resistances of 0.2–2.0 MΩ were filled with 3 M KCl. The holding potential was −70 mV. Current responses were filtered (4-pole, Bessel, low pass) at 20 Hz (−3 db) and sampled at 100 Hz. OpusXpress 1.1 software (Molecular Devices) was used to capture and store current responses.
To measure the ability of Orco antagonists to inhibit odorant activation, oocytes expressing heteromeric ORs (Orco + ORX) were exposed to a 30 sec application of odorant followed by a 20 min wash. Oocytes were then exposed to a 90 sec application of Orco antagonist, immediately followed by a 30 sec co-application of Orco antagonist and odorant. The current response to odorant in the presence of Orco antagonist was compared to the preceding response to odorant alone and represented as a percentage. This value was then normalized to the value obtained when the assay was run in the absence of antagonist (sham).
Figure S3. Effects of Orco antagonists on heteromeric ORs. […]
heteromeric complexes of odorant specificity subunits and Orco. The Orco antagonists tested were 3-isopropyl-6-methyl-catechol (3 I6 MC), a potent compound from the input training set, and two compounds id e ntified in Fig u re 4 an d Ta b le 1 : 2-tert-butyl-6-methylphenol (B MP ) and linalyl formate (LF) . […]
SEM (n = 4). […] Statistical significance of the data in each panel was assessed by one-way analysis of variance followed by Dunnett’s […]

[1] = system: sham (water) injected oocytes; assay: Application of Orco antagonists to sham (water) injected oocytes; type: cell-based, Xenopus laevis; details: 3 mM
Method: To measure antagonist activity at Orco, Agam\Orco was activated by the Orco agonist OLC12[34]. Following two successive 60 sec applications of 30 μM OLC12, with 5 min washes between applications, each antagonist candidate was applied for 90 sec, immediately followed by a 60 sec co-application of antagonist candidate and OLC12. The 90 sec application of each compound alone (prior to co-application of the compound and OLC12) allowed us to ensure that antagonist candidate compounds were not causing non-specific effects on the oocytes that might confound the results. The current response to OLC12 in the presence of antagonist candidate was compared to the mean of the preceding two responses to OLC12 alone and presented as a percentage[34],[35]. This value was then normalized to the value obtained when the assay was run in the absence of antagonist candidate (sham).
Figure S2. Applic a tion of Orco antagonists to s ha m (wa ter) injected oocytes.
Up p e r tra ce, current recording from a sham (water) injected oocyte that was challenged with 60 sec applications of 100 µM an d 1 mM 3-isopropyl-6-methyl-ca t e ch o l (3 I6MC). Representative of recordings from 4 oocytes. Lo we r trace, current recording from a sham (water) injected oocyte that was challenged with 60 sec applications of 3 mM 2-tert-butyl-6-methylphenol (BMP) and linalyl formate (LF). Representative of recordings […]

Compound	inhibition of odorant activation (Agam\Or65 + Agam\Orco)	non-specific effects on sham (water) injected oocytes [1]
Cc1cccc(C(C)(C)C)c1O [BMP, 2-tert-butyl-6-methylphenol]	able to inhibit odorant activation	Neither BMP or LF exerted any non-specific effects
Cc1ccc(C(C)C)c(O)c1O [3I6MC, 3-isopropyl-6-methyl catechol]	could inhibit odorant activation	–
C=CC(C)(CCC=C(C)C)OC=O (centres unmarked) [LF, linalyl formate]	able to inhibit odorant activation	Neither BMP or LF exerted any non-specific effects
